The nature of assay [1]: Formation of adducts with MDA, kinetic study by HPLC. Format: physicochemical. Conditions: compound 10 mM, MDA 20 mM, 37° C., after 24 h of reaction; no HPLC separation, trend. The method, then: The compounds to be tested are incubated at 37° C. in the presence of MGO or of MDA. A kinetic study aiming to report on the formation of adducts with the MGO or MDA is then carried out via HPLC analysis.
The compounds to be tested (30 μmol) are dissolved in PBS (1.5 mL). An aqueous solution (qsp 1.25 mL) of MGO at 40% in water (250 μmol) is then prepared and in parallel, MDA bis-(diOEt)-acetal (250 μmol) is set to react with a solution of HCl 1N (2 eq) in water (qsp 1.25 mL) for 1 h at room temperature. An aqueous solution of NaOH 0.05N is also required to neutralise the reaction medium (5 mL).
The solution of the compound to be tested (625 μL—final concentration in the medium=10 mM) is then set to react with the solution of MGO or of MDA prepared extemporaneously (125 μL—final concentration in the medium=20 mM) in the presence of NaOH 0.05 N (0.5 mL). […]
A sampling of each mixture (100 μL) is taken at regular intervals of time (0.25; 0.5; 1; 5 and 24 h) and stored at −20° C. in order to stop the reaction. […] The proportion of adducts formed with the MGO or MDA (generally, tR=4.1 to 6.8 min) is then measured in relation to the quantity of remaining free scavenger (generally, tR=0.8 to 4.6 min) after measurement of the area under the curve of the corresponding peaks on the UV spectrum (measurements taken for a representative sample).

For assay [2], the system named is rat pheochromocytoma cells, treated as neuronal cells (PC12). In words: Anti-apoptotic properties after MGO-induced apoptosis (ELISA) on PC12. Format: cell-based. To be noted: 24 h. The method, then:
(§1) The apoptosis of cells is evaluated by an ELISA method using two murine monoconal antibodies with one directed against the DNA and the other against the histones ([…] Cell Death Detection kit, Roche, Meylan, France). This technique makes it possible to specifically measure the mono- and oligo-nucleosomes in the cytoplasmic fraction of the cell lysates.
(§2) Briefly, the cells are inoculated in 96-well or 24-well plates at a rate of 5.10^3 cells/well for the Bend.3 and PC12 and 75.10^3 cells/well for the MRCS in the suitable medium until subconfluence. The cells are then washed with PBS, then treated with various concentrations (10 μM, 100 μM) of the products to be tested in triplicates for 30 min to 1 h (cellules PC12 and Bend.3) or 1 h (cellules MRCS) at 37° C. The solution of MGO (1 mM for the cellules PC12, 2 mM for the cellules Bend.3 and MRCS) is then added for an incubation of 24 h. The concentrations of MGO for each cell type were chosen according to literature and a cytotoxicity test (CCK8) that we conducted. The solution of lyse is then added to each well for 30 min at room temperature. The cell lysates are then centrifuged at 200 g for 10 min. Twenty microliters of this cell lysate is then used for the ELISA according to the procedure described by the supplier. The cell lysates are as such applied to a plate covered with anti-Histones antibodies making it possible to view the fragmentation of the DNA. A peroxidase combined with anti-DNA antibodies then reacts in the presence of the substrate thereof, ABTS (diammonium 2,2′-azino-bis(3-ethylbenzothiazoline-6-sulphonate) and H2O2 in order to give a green derivative of which the optical density reflects the level of apoptosis. The measurement of the absorbance is taken at 405 nm using a Perkin Elmer 2103 Envision® microplate reader. A positive control is carried out in the presence of MGO alone.
The apoptosis of the cells is expressed by the mean±standard deviation of triplicates forming a representative experiment or of three independent experiments conducted in triplicate.

For assay [3], the system named is human fibroblasts (MRC-5). In words: Anti-apoptotic properties after MGO-induced apoptosis (ELISA) on MRC-5. Format: cell-based. To be noted: MRC-5, pretreated 1 h with 10 or 100 μM, then 2 mM MGO, 24 h. The method, then: as §1
as §2, with “The concentrations of MGO for each cell type were chosen according to literature and a cytotoxicity test (CCK8) that we conducted. The solution of lyse is then added to each well for 30 min at room temperature. The cell lysates are then centrifuged at 200 g for 10 min. Twenty microliters of this cell lysate is then used for the ELISA according to the procedure described by the supplier. The cell lysates are as such applied to a plate covered with anti-Histones antibodies making it possible to view the fragmentation of the DNA.” left out, “alone. […]” for “alone.”
On the technique in general: ELISA stands for enzyme-linked immunosorbent assay.

In assay [4] the test system is murine endothelial brain cells (bEnd.3). The assay can be described thus: Anti-apoptotic properties after MGO-induced apoptosis (ELISA) on bEnd.3. Format: cell-based. Conditions: bEnd.3, pretreated 30 min with 10 or 100 μM, then 2 mM MGO, 24 h. The method, then:
as §1
as §2, with “The concentrations of MGO for each cell type were chosen according to literature and a cytotoxicity test (CCK8) that we conducted. The solution of lyse is then added to each well for 30 min at room temperature. The cell lysates are then centrifuged at 200 g for 10 min. Twenty microliters of this cell lysate is then used for the ELISA according to the procedure described by the supplier. The cell lysates are as such applied to a plate covered with anti-Histones antibodies making it possible to view the fragmentation of the DNA.” left out, “alone. […]” for “alone.”

The mark [5] stands for this setting: PC12, pretreated 30 min with 10 or 100 μM, then 1 mM MGO.

SMILES strings stand for the structures.

On to `COc1cc(/C=C/C(=O)N2CCN(C(=O)CCC(N)CN)CC2)ccc1O` (centres unmarked) [Compound 29a, (E)-4,5-diamino-1-(4-(3-(4-hydroxy-3-methoxyphenyl)acryloyl)piperazin-1-yl)pentan-1-one], for which, in assay [1], the “adducts with the MDA with regards to the free scavenger” value was “majority presence of AdD”.

Take `NCC(N)CCC(=O)NCCCn1cccc(O)c1=O` (centres unmarked) [Compound 37c, 4,5-diamino-N-(3-(3-hydroxy-2-oxopyridin-1(2H)-yl)propyl)pentanamide]: the anti-apoptotic properties result in assay [2] (setting [5]) is “very interesting anti-apoptotic properties starting at 10 μM”; in assay [2] (PC12, pretreated 1 h, 100 μM, 1 mM MGO, three independent experiments in triplicate) it was “confirmed”; in assay [3] it was “promising anti-apoptotic properties at 100 μM”; in assay [4], “very interesting anti-apoptotic properties starting at 10 μM”.

On to `NCC(N)CCCCNC(=O)c1cc(O)c(O)c(O)c1` (centres unmarked) [Compound 30b, N-(5,6-diaminohexyl)-3,4,5-trihydroxybenzamide], for which the anti-apoptotic properties entry in assay [2] (setting [5]) is given as “this trend is confirmed at 100 μM”; in assay [4] it was “very interesting anti-apoptotic properties starting at 10 μM”.

In the case of `NCC(N)CCCCNC(=O)CCn1cccc(O)c1=O` (centres unmarked) [Compound 37b, N-(5,6-diaminohexyl)-3-(3-hydroxy-2-oxopyridin-1(2H)-yl)propanamide], the anti-apoptotic properties result in assay [3] is “promising anti-apoptotic properties at 100 μM”.

For the origin of these results see US10464920B2, “Vicinal primary diamines associated with metal and/or free radical chelation motifs, and active against carbonyl and oxidative stress, and use thereof” (UNIVERSITE AMIENS PICARDIE JULES VERNE, priority 2015, dated 2019).
